Assay results taken from ChEMBL document CHEMBL5291721, “A preclinical secondary pharmacology resource illuminates target-adverse drug reaction associations of marketed drugs” (Nat Commun, 2023).

Assays:
[1] = molecular target: T1, Alpha-1A adrenergic receptor (Homo sapiens, UniProt P35348); format: functional, cell-based
T1 sequence (P35348 whole entry): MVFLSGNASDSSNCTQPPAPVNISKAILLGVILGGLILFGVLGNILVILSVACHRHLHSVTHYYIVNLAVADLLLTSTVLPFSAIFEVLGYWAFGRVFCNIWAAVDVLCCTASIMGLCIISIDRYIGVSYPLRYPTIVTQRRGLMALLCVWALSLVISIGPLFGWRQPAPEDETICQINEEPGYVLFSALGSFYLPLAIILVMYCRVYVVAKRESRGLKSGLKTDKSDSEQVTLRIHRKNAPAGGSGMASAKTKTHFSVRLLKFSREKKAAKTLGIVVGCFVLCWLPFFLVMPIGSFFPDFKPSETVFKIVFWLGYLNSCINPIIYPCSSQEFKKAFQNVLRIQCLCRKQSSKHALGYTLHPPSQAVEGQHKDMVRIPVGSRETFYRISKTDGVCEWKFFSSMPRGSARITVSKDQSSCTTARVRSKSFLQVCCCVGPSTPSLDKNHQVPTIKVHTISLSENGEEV

[2] = molecular target: T2, Gastrin/cholecystokinin type B receptor (Homo sapiens, UniProt P32239)
T2 sequence (P32239 whole entry): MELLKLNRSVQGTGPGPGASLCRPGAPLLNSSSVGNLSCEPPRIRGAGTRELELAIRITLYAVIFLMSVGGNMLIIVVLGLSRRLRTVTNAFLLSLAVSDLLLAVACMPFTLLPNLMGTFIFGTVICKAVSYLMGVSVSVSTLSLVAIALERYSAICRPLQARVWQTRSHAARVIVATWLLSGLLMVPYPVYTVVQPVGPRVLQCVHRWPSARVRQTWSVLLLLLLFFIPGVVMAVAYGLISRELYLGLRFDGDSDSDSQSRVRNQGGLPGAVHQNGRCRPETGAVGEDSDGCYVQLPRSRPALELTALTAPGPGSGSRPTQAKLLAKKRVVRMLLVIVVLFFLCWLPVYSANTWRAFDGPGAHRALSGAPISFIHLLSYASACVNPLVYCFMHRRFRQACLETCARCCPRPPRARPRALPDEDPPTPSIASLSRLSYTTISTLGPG

Cannabinoid receptor 1 = Cannabinoid receptor 1 (Homo sapiens, UniProt P21554); format: functional, cell-based
Cannabinoid receptor 1, sequence (P21554 whole entry): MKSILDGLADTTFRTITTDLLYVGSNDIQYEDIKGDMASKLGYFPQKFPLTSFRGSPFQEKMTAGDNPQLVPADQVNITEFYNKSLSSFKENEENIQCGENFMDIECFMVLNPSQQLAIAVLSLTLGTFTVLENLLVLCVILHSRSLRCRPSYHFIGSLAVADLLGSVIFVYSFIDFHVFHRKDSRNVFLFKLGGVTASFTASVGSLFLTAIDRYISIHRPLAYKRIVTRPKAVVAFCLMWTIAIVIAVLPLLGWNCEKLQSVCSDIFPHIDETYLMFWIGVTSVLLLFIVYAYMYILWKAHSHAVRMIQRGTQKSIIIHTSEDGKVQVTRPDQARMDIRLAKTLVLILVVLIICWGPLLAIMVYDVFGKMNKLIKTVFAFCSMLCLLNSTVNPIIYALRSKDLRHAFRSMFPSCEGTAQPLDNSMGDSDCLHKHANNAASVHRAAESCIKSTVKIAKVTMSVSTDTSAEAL

Histamine H3 receptor = Histamine H3 receptor (Homo sapiens, UniProt Q9Y5N1)
Histamine H3 receptor, sequence (Q9Y5N1 whole entry): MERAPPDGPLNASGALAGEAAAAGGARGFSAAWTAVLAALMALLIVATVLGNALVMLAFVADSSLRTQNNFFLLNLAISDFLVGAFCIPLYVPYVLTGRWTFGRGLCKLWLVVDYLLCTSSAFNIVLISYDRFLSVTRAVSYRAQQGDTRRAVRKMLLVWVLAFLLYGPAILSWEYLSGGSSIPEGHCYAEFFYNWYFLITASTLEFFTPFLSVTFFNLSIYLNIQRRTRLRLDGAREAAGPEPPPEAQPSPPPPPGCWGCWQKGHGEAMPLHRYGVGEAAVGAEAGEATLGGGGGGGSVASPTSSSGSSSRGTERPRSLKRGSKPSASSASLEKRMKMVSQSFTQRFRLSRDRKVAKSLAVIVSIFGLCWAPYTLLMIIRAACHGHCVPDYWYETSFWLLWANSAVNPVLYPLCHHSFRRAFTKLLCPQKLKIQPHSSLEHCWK

[3] = molecular target: Vascular endothelial growth factor receptor 2 (Homo sapiens, UniProt P35968); format: functional
Vascular endothelial growth factor receptor 2, sequence (P35968 whole entry): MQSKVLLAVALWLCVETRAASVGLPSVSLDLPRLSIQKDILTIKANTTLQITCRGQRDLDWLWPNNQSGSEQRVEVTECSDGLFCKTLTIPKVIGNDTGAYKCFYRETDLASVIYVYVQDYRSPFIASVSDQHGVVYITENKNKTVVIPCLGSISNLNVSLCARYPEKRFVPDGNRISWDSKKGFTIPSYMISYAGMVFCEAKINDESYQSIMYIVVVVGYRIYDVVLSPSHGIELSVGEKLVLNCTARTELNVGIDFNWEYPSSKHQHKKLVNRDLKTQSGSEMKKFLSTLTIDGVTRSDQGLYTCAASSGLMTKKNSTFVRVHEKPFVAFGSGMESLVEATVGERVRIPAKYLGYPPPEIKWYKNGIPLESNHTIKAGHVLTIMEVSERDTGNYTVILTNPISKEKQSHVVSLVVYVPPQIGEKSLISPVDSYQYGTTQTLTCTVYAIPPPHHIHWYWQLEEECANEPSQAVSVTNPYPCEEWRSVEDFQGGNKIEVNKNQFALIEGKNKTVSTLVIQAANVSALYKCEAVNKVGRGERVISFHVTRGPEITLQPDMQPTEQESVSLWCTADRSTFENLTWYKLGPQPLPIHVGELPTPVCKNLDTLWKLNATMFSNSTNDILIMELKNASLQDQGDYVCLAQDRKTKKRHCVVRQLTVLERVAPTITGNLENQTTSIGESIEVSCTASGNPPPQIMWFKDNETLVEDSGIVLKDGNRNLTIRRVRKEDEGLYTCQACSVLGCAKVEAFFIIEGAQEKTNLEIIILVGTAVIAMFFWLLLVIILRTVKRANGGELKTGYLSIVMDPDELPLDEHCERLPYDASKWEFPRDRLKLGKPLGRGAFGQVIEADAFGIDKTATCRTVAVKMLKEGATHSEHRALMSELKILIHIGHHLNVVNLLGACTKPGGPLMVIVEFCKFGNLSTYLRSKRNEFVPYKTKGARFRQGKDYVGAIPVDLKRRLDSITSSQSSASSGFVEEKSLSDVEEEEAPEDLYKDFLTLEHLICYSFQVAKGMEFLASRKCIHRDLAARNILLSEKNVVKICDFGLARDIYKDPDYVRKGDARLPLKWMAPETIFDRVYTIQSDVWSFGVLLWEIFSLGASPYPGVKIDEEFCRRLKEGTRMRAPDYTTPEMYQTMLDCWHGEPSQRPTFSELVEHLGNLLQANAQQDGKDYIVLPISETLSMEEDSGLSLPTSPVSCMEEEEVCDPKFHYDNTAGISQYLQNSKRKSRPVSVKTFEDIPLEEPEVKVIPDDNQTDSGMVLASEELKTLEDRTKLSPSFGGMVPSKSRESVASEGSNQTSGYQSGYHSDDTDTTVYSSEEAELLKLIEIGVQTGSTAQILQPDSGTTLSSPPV

[4] = molecular target: T3, Neuropeptide Y receptor type 1 (Homo sapiens, UniProt P25929)
T3 sequence (P25929 whole entry): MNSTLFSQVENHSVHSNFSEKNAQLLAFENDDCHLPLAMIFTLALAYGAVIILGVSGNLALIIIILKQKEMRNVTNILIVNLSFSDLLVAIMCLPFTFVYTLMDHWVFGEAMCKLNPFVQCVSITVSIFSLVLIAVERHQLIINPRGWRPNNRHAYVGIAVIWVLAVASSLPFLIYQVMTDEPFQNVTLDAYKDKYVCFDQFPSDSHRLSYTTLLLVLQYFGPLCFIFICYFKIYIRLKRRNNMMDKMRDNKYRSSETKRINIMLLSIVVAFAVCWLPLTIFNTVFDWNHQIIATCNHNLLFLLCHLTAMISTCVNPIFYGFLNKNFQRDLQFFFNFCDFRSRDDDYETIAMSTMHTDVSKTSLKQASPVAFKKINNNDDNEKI

Progesterone receptor = molecular target: T4, Progesterone receptor (Homo sapiens, UniProt P06401); format: functional
T4 sequence (P06401 whole entry): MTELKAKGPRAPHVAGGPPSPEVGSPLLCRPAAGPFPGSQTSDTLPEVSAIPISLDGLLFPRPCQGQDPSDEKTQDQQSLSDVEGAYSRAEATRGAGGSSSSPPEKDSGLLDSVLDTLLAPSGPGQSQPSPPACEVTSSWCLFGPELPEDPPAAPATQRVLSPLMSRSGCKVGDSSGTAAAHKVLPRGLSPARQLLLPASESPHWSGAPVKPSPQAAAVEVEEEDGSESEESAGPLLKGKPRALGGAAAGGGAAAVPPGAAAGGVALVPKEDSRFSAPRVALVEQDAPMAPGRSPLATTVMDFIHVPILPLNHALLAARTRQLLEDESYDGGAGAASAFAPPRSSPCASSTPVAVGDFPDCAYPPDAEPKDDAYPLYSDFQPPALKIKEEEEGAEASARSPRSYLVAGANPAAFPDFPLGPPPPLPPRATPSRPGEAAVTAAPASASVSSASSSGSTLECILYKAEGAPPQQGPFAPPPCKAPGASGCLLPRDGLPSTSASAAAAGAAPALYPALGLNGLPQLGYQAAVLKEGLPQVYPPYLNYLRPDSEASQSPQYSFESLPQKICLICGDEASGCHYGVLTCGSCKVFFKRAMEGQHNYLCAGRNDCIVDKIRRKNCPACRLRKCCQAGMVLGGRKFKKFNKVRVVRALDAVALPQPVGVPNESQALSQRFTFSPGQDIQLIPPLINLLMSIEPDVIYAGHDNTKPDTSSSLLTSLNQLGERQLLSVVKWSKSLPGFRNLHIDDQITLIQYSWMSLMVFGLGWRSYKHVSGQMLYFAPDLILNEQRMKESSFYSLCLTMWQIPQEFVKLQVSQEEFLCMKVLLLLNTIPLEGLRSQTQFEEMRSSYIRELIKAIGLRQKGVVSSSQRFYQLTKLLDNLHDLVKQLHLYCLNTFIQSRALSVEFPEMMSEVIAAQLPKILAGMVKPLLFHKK

Thromboxane A2 receptor = molecular target: T5, Thromboxane A2 receptor (Homo sapiens, UniProt P21731); format: functional, cell-based
T5 sequence (P21731 whole entry): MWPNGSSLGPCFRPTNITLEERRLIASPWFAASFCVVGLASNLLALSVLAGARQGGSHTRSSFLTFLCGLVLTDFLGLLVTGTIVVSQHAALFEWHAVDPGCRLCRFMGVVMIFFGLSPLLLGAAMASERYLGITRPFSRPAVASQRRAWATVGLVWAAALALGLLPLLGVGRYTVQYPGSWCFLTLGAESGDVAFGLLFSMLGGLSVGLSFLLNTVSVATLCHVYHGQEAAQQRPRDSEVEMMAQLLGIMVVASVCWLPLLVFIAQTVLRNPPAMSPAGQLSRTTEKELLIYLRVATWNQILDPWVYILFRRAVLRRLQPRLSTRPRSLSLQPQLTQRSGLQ

[5] = molecular target: T1, Alpha-1A adrenergic receptor; format: functional, cell-based; remark: listed apart in the source
[6] = molecular target: Beta-2 adrenergic receptor (Homo sapiens, UniProt P07550)
Beta-2 adrenergic receptor, sequence (P07550 whole entry): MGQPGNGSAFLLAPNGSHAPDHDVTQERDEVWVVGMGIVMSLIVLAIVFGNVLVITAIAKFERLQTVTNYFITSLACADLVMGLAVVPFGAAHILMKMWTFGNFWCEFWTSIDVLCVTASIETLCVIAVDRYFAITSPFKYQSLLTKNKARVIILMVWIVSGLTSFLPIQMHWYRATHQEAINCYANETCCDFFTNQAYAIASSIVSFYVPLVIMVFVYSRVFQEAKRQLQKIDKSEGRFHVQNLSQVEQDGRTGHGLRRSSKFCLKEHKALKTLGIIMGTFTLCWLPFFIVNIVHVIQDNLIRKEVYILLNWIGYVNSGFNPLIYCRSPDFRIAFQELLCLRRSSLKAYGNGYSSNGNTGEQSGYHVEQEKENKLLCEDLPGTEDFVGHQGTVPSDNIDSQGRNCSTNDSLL

[7] = molecular target: Muscarinic acetylcholine receptor M3 (Homo sapiens, UniProt P20309)
Muscarinic acetylcholine receptor M3, sequence (P20309 whole entry): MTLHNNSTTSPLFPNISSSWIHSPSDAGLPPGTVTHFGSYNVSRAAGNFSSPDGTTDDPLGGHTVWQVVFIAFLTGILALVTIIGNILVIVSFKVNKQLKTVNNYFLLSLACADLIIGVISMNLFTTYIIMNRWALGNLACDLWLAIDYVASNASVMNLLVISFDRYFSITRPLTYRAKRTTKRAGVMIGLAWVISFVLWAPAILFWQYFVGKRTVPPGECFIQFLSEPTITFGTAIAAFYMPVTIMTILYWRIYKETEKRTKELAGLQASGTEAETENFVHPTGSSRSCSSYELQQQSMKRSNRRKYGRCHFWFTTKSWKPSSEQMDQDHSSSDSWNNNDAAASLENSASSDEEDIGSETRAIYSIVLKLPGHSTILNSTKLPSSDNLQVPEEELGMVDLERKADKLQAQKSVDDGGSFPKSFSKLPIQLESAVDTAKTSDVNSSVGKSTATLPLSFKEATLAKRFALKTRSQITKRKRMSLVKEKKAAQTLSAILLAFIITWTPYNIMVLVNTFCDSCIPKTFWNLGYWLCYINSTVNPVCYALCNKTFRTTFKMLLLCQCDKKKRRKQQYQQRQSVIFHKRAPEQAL
Note: assay procedure not described here.

Structure (SMILES) | AC50 [1] | AC50 [2] | AC50 (Cannabinoid receptor 1) | AC50 (Histamine H3 receptor) | AC50 [3] | AC50 [4] | AC50 (Progesterone receptor) | AC50 (Thromboxane A2 receptor) | AC50 [5] | AC50 [6] | AC50 [7]
CS(=O)(=O)Nc1ccc([N+](=O)[O-])cc1Oc1ccccc1 [NIMESULIDE] | > 30 µM | > 30 µM | > 30 µM | > 30 µM | > 30 µM | > 30 µM | > 30 µM | > 30 µM | > 30 µM |  | 
CN(C)CCC=C1c2ccccc2CCc2ccccc21 [AMITRIPTYLINE] | > 30 µM | > 30 µM | > 30 µM | > 30 µM | > 30 µM | > 30 µM | > 30 µM | 26.3 µM | 0.12 µM | 21.1 µM | 
O=C1[C@@H]2[C@H]3CC[C@H](C3)[C@@H]2C(=O)N1C[C@@H]1CCCC[C@H]1CN1CCN(c2nsc3ccccc23)CC1 [LURASIDONE] |  |  | > 30 µM | > 30 µM | > 30 µM |  | > 30 µM | > 30 µM |  |  | 
CN(C)CCN(Cc1ccccc1)c1ccccn1 [TRIPELENNAMINE] | > 30 µM |  |  | > 30 µM | > 30 µM | > 10 µM |  | > 30 µM |  | > 30 µM | > 30 µM
CC(=O)Oc1ccccc1C(=O)O [ASPIRIN] | > 30 µM | > 30 µM | > 30 µM | > 30 µM | > 30 µM | > 30 µM |  | > 30 µM | > 30 µM | > 10 µM | 
Cc1cc(C)cc(OCC2CNC(=O)O2)c1 (configuration not stated) [METAXALONE] | > 30 µM |  |  | > 30 µM | > 30 µM |  |  | > 30 µM |  |  | 
N#Cc1ccnc(N2C(=O)CC[C@H]2C(=O)N(c2cncc(F)c2)[C@H](C(=O)NC2CC(F)(F)C2)c2ccccc2Cl)c1 [IVOSIDENIB] | > 30 µM |  |  | > 30 µM | > 30 µM |  |  | > 30 µM |  |  | 
NC(=O)C1(N2CCCCC2)CCN(CCCC(=O)c2ccc(F)cc2)CC1 [PIPAMPERONE] | > 30 µM |  |  | 21.7 µM | > 30 µM |  |  | > 30 µM |  |  | 
Cc1c(C)c2c(c(C)c1O)CCC(C)(COc1ccc(CC3SC(=O)NC3=O)cc1)O2 (configuration not stated) [TROGLITAZONE] | > 30 µM | > 30 µM | > 30 µM | > 30 µM | > 30 µM | > 30 µM | 16 µM |  | > 30 µM |  | 
C[C@]12CC[C@@H]3c4ccc(OC(=O)N(CCCl)CCCl)cc4CC[C@H]3[C@@H]1CC[C@@H]2OP(=O)(O)O [ESTRAMUSTINE PHOSPHATE] | > 30 µM |  |  | > 30 µM | 19.5 µM |  |  | > 30 µM |  |  | 
CCOC(=O)[C@H](CCc1ccccc1)N[C@@H](C)C(=O)N1Cc2ccccc2C[C@H]1C(=O)O | > 30 µM | > 30 µM | > 30 µM | > 30 µM | > 30 µM | > 30 µM |  | > 30 µM | > 30 µM | > 10 µM | 
CC1=C(C/C=C(\C)CCC[C@H](C)CCC[C@H](C)CCCC(C)C)C(=O)c2ccccc2C1=O [PHYTONADIONE] | > 30 µM |  |  | > 30 µM | > 30 µM |  |  | > 30 µM |  |  | 
CCCCCCO[C@@H](C)c1cccc(-c2csc(NC(=O)c3cc(Cl)c(/C=C(\C)C(=O)O)c(Cl)c3)n2)c1OC [LUSUTROMBOPAG] | > 30 µM |  |  | 15.1 µM | > 30 µM |  |  | 14.2 µM |  |  | 
CC(C)Nc1cccnc1N1CCN(C(=O)c2cc3cc(NS(C)(=O)=O)ccc3[nH]2)CC1 [DELAVIRDINE] | > 30 µM |  |  | > 30 µM | > 30 µM |  |  | 23.2 µM |  |  | 
Cc1cccc(C)c1NC(=O)c1cc(S(N)(=O)=O)c(Cl)cc1O [XIPAMIDE] | > 30 µM |  |  | > 30 µM | > 30 µM |  |  | > 30 µM |  |  | 
CCCCCCCC/C=C\CCCCCCCC(=O)O [OLEIC ACID] | > 30 µM |  |  | > 30 µM | > 30 µM |  |  | 25.3 µM |  |  | 
O=c1[nH]c2ccccc2n1CCN1CCN(c2cccc(C(F)(F)F)c2)CC1 [FLIBANSERIN] | > 30 µM |  |  | > 30 µM | > 30 µM |  |  | 10.5 µM |  |  | 
CN(C)CCCC1(c2ccc(F)cc2)OCc2cc(C#N)ccc21 (configuration not stated) [CITALOPRAM] |  | > 30 µM | > 30 µM | > 30 µM | > 30 µM | > 30 µM |  | > 30 µM |  | > 10 µM | 
NCC1(CC(=O)O)CCCCC1 [GABAPENTIN] | > 30 µM | > 30 µM | > 30 µM | > 30 µM | > 30 µM | > 30 µM | > 30 µM | > 30 µM | > 30 µM | > 10 µM | 
CC(C)(Oc1ccc(Cl)cc1)C(=O)NC(=O)NCN1CCOCC1 [PLAFIBRIDE] | > 30 µM |  |  | > 30 µM | > 30 µM |  |  | > 30 µM |  |  | 
C=CCOc1ccc(CC(=O)O)cc1Cl [ALCLOFENAC] | > 30 µM |  |  | > 30 µM | > 30 µM |  |  | > 30 µM |  |  | 
